# Assay results reported in patent US20200338064A1, “HIGH CONCENTRATION LOCAL ANESTHETIC FORMULATIONS” (priority 2007, published 2020).
# Assay: Solubility and compatibility of lidocaine and lidocaine HCl at 40% w/w in solvent blends
# Format: physicochemical
# Conditions: two weeks at accelerated conditions versus initial
# Description: The solubility and compatibility of lidocaine and lidocaine HCl in solvents typically used in topical pharmaceutical products was assessed in order to direct the formulation development efforts.
# Initially, the solubility of lidocaine and lidocaine hydrochloride was evaluated in single solvents with varying lipophilicity. […] Based on the single solvent data, a compatibility study was initiated to evaluate the chemical stability of the drug at a concentration of 40% w/w in a variety of solvent blends that would form the base of potential prototype gel or cream formulations.
smiles,measurement,value
CCN(CC)CC(=O)Nc1c(C)cccc1C [lidocaine],Physical appearance and chemical compatibility in solvent blends,retained their physical appearance
